Activity calls are given as the source filed them.
Legend:
Streptococcus = assay: Group A Streptococcus viability loss, dose response, counter-screen for streptokinase expression inhibitor project, luminescence, BacTiterGlo (AID 1915); type: functional, organism-based;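 also: potency for reduction of bacterial viability or growth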
[1] = system: Streptococcus sp. 'group A'; assay: growth inhibition of control SK(-) GAS strain, dose response, counter-screen for streptokinase expression inhibitor project, luminescence, kanamycin, BacTiterGlo, confirmation (AID 1900); type: functional, organism-based
Cytochrome P450 3A4 = Cytochrome P450 3A4 (Homo sapiens, UniProt P08684);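 also: CYP3A4 tested as one member of a cytochrome P450 panel screen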
Chain of Cytochrome P450 3A4 (P08684 whole entry): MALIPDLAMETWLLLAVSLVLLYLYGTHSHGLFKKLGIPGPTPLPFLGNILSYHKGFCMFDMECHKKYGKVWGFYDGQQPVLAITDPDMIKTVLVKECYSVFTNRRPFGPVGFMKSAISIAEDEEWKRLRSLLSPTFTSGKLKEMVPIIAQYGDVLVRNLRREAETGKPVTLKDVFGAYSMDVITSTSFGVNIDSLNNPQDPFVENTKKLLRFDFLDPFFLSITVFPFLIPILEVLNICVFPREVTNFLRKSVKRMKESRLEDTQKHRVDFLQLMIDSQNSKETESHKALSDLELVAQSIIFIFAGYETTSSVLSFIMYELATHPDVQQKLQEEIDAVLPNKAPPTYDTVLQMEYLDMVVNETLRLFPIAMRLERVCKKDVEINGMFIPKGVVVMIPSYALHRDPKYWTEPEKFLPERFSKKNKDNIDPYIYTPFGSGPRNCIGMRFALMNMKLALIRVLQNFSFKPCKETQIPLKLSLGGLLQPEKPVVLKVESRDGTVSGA

[2] = Luminescence Cell-Based Dose Retest to Confirm Inhibitors of Cancer Stem Cells. [Related pubchem assays (depositor defined):AID2717, AID2721]; type: functional; details: Homo sapiens
[3] = cytotoxicity toward NIH3T3 fibroblasts, dose response, counter-screen, cell-based, ATP luminescence, mouse fibroblasts (AID 2010); type: functional;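 also: cells exposed to compound for about 90 hours before reading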
[4] = inhibitors of intracellular T. cruzi replication, confirmation, NIH3T3 host cells, beta-gal luminescence (AID 2044); type: functional, cell-based;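 also: intracellular parasites grown in NIH/3T3 mouse fibroblasts as host cells; luminescent beta-galactosidase reporter signal from transgenic T. cruzi replicating inside host cells; inhibitors lower the luminescence signal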
Cytochrome P450 1A2 = target: T1, Cytochrome P450 1A2 (Homo sapiens, UniProt P05177);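 also: PubChem cytochrome P450 panel assay, CYP1A2 panel member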
T1 sequence (P05177 whole entry): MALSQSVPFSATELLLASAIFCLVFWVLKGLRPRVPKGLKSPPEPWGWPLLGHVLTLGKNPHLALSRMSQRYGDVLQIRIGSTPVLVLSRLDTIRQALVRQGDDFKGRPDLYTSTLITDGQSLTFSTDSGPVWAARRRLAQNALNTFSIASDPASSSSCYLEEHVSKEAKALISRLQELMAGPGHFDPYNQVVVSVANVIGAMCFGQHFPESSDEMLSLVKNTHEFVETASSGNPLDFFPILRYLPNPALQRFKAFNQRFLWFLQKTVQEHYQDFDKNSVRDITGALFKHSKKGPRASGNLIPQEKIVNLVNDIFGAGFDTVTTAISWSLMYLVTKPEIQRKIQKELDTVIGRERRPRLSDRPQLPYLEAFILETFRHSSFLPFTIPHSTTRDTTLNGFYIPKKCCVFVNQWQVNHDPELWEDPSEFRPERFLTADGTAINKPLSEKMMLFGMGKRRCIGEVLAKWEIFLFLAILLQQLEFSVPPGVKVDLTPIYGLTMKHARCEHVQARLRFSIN

[5] = target: T2, Rac GTPase-activating protein 1 (Homo sapiens, UniProt Q9H0H5); assay: MgcRacGAP GTPase-activating activity inhibitors, confirmation, biochemical, ADP Hunter fluorescence, primary and confirmatory (AID 624330); type: functional
T2 sequence (Q9H0H5 whole entry): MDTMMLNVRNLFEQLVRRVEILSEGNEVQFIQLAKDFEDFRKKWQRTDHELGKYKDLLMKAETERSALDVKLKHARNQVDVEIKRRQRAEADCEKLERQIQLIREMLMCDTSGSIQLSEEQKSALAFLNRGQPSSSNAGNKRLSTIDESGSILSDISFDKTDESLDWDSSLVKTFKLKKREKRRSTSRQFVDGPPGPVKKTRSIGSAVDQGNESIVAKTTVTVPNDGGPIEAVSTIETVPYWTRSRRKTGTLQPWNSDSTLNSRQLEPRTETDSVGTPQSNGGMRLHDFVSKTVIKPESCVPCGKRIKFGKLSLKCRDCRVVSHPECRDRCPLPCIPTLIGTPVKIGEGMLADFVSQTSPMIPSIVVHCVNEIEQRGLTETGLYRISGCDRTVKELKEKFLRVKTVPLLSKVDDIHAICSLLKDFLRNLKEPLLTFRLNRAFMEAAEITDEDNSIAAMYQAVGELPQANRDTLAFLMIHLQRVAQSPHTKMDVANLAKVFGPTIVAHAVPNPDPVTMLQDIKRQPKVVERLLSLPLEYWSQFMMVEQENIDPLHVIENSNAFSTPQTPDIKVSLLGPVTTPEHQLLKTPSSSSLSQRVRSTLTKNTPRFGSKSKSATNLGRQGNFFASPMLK

Structure (SMILES): Cc1nn(CC(=O)NC2C(=O)N3C(C(=O)O)=C(CSc4nnnn4C)CSC23)cc1Br (stereo not given)
- EC50 (Streptococcus): 0.316 µM (active)
- EC50 [1]: 72 nM (active)

Structure (SMILES): COc1ccc2[nH]c3c(c2c1)CCN=C3C
- AC50 (Cytochrome P450 3A4): 5.01 µM (inconclusive)

Structure (SMILES): Cc1nc2ccc(Br)cn2c1C(=O)N/N=C\c1ccc(C(C)C)cc1
- AC50 [2]: 2.75 µM (active)

Structure (SMILES): CCC(C)c1ccccc1NC(=O)COC(=O)c1ccc2[nH]c3c(c2c1)CCCC3 (stereo not given)
- AC50 [2]: 2.09 µM (active)

Structure (SMILES): Cc1ccc(Cl)cc1N1CCN(C(=O)c2ccc(CN3CCOCC3)cc2)CC1
- EC50 [3]: 4.63 µM (active)
- EC50 [4]: 2.13 µM (active)

Structure (SMILES): CCn1c(NC(=O)c2cccc(Cn3cc(Cl)cn3)c2)nc2ccccc21
- EC50 (Streptococcus): 18.6 µM (active)
- EC50 [1]: 3970 nM (active)

Structure (SMILES): CCc1ccc(-c2cc3c(=O)n(CC(=O)NCCN4CCCCC4C)nc(C)n3n2)cc1 (stereo not given)
- AC50 [2]: 2.45 µM (active)

Structure (SMILES): CC(C)NCC(O)COC1C2CC3CC(C2)CC1C3 (stereo not given)
- EC50 [3]: > 60 µM (not active)
- EC50 [4]: 1.14 µM (active)

Structure (SMILES): COc1cccc(Oc2nc(-c3ccncc3)nc3ccccc23)c1
- EC50 [3]: 7.86 µM (active)
- EC50 [4]: 2.41 µM (active)

Structure (SMILES): CCOc1cc(-c2cc(-c3ccc(NC(C)=O)cc3)nc(N)c2C#N)ccc1O
- EC50 (Streptococcus): 6.34 µM (active)
- EC50 [1]: 651 nM (active)

Structure (SMILES): COc1ccc(-n2nc([N+](=O)[O-])c(NCCc3cccc(C)c3)[n+]2[O-])cc1
- EC50 [3]: > 60 µM (inconclusive)
- EC50 [4]: 0.48 µM (active)

Structure (SMILES): N#CC1=C(N)NC(SCc2ccc(Br)cc2)=C(C#N)C12CCCCC2
- EC50 [3]: > 60 µM (not active)
- EC50 [4]: 3.29 µM (active)

Structure (SMILES): O=C(Nc1ccccc1)N1CCCC2(CCNCC2)C1
- AC50 (Cytochrome P450 1A2): 25.1 µM (inconclusive)
- AC50 (Cytochrome P450 3A4): 20 µM (inconclusive)

Structure (SMILES): COc1cc2nc(=S)n(CCCN3CCOCC3)c(N)c2cc1OC
- IC50 [5]: 202 µM (active)

Structure (SMILES): COC(=O)c1ccc(N2CCN(c3ccccc3)CC2)c(NC(=O)C2CC2)c1
- AC50 (Cytochrome P450 1A2): 39.8 µM (inconclusive)
- AC50 (Cytochrome P450 3A4): 25.1 µM (inconclusive)

Structure (SMILES): COc1ccc(-c2c[n+](CC(=O)N3c4ccccc4Sc4ccccc43)c3n2CCC3)cc1
- EC50 [3]: > 60 µM (not active)
- EC50 [4]: 0.648 µM (active)

Structure (SMILES): COC(=O)c1ccc(-c2noc(CN(Cc3ccncc3)CC3CCCO3)n2)cc1 (stereo not given)
- EC50 [3]: > 60 µM (inconclusive)
- EC50 [4]: 2.46 µM (active)

Structure (SMILES): COc1ccc(C(c2nnnn2Cc2ccccc2)N2CCN(c3nc4ccccc4s3)CC2)cc1 (stereo not given)
- EC50 [3]: 8.63 µM (active)
- EC50 [4]: 3 µM (active)

Structure (SMILES): COc1cc(/C=N/Nc2nc(C)cc(C)n2)ccc1O
- IC50 [5]: 47.1 µM (active)

Structure (SMILES): C#CCCCO/N=C1/C[C@@H](O)[C@@H](O)[C@@H]2[C@@H]3C(=O)N(CCC(=O)OCC)C(=O)[C@H]3CC[C@@H]12
- AC50 (Cytochrome P450 3A4): 3.16 µM (inconclusive)

Structure (SMILES): O=C(O)[C@@H]1CCN(Cc2oc(CO)cc(=O)c2O)C1
- AC50 (Cytochrome P450 1A2): 10 µM (inconclusive)

Structure (SMILES): CN(C)C=O.O=[N+]([O-])c1cccc(COc2ncnc3cc([N+](=O)[O-])ccc23)c1
- EC50 [3]: > 60 µM (not active)
- EC50 [4]: 1.93 µM (active)

Structure (SMILES): Nc1nc2c(C(=O)NCc3cccs3)nnn2c2cccc(Cl)c12
- AC50 (Cytochrome P450 1A2): 1 µM (inconclusive)

Structure (SMILES): CC1=C(C(=O)Nc2cccnc2)C(c2cccnc2)n2nc(-c3cccs3)nc2N1 (stereo not given)
- AC50 (Cytochrome P450 1A2): 5.01 µM (inconclusive)

Structure (SMILES): COCCNC(=O)c1onc(CSc2ccc(Cl)cc2)c1C(=O)O
- AC50 (Cytochrome P450 3A4): 15.8 µM (inconclusive)

Structure (SMILES): CN1CCN(c2ccnc(-c3ccc(N(C)C)cc3)n2)CC1
- AC50 (Cytochrome P450 3A4): 15.8 µM (inconclusive)

Structure (SMILES): COc1cc(/C=N/N=C2\CC3CCC2(C)C3(C)C)ccc1O (stereo not given)
- IC50 [5]: 54.4 µM (active)

Structure (SMILES): CCc1ccccc1NC(=O)CN(c1ccc(OC)cc1OC)S(=O)(=O)c1ccccc1[N+](=O)[O-]
- EC50 [3]: > 60 µM (not active)
- EC50 [4]: 2.25 µM (active)

Structure (SMILES): Cc1c(C)n(CCCN(C)C)c2ncnc(Nc3ccc(F)cc3)c12
- EC50 [3]: > 30 µM (not active)
- EC50 [4]: 0.9 µM (active)

Structure (SMILES): COc1ccc(-c2nc3cnc(OC)nc3n(CCC#N)c2=O)cc1
- AC50 (Cytochrome P450 1A2): 6.31 µM (inconclusive)

Structure (SMILES): Cn1cc(-c2nc3cnc(N4CCNCC4)nc3n(C)c2=O)c2ccccc21
- AC50 (Cytochrome P450 1A2): 15.8 µM (inconclusive)

Structure (SMILES): COc1ccc(NC(=O)N2CCCC3(CCN(C(=O)c4cnccn4)CC3)C2)cc1
- AC50 (Cytochrome P450 3A4): 15.8 µM (inconclusive)

Structure (SMILES): CN1CCN(c2ncc3nc(CCc4ccccc4)c(=O)n(C4CC4)c3n2)CC1
- AC50 (Cytochrome P450 1A2): 12.6 µM (inconclusive)
- AC50 (Cytochrome P450 3A4): 15.8 µM (inconclusive)

Structure (SMILES): Oc1ccc2ccc(Cl)cc2c1
- IC50 [5]: 41.9 µM (active)

Structure (SMILES): O=c1ccn(-c2ccccc2)[nH]1
- IC50 [5]: 46.9 µM (active)

Structure (SMILES): CN(CCc1ccccn1)Cc1ccc(Cl)c(Cl)c1
- EC50 [3]: > 60 µM (not active)
- EC50 [4]: 0.244 µM (active)

Structure (SMILES): CCO/C(O)=C(/C#N)c1nc2ccccc2nc1N(CC(C)C)CC(C)C
- AC50 [2]: 6.07 µM (active)

Structure (SMILES): CCS(=O)(=O)N1CCC(C(=O)NCCCOC)CC1
- AC50 (Cytochrome P450 3A4): 0.0562 µM (inconclusive)

Structure (SMILES): COc1cccc(-c2sc3ccc(OC)cc3c2C#CCC(C)O)c1 (stereo not given)
- AC50 [2]: 3.66 µM (active)

Structure (SMILES): Cn1c(=O)c2c(nc(Cl)n2Cc2ccc(Cl)c(Cl)c2)n(C)c1=O
- AC50 (Cytochrome P450 3A4): 15.8 µM (inconclusive)

Structure (SMILES): Oc1ccc(Nc2ncnc3c2oc2ccccc23)cc1
- IC50 [5]: 15 µM (active)

Structure (SMILES): Cc1cccc(NC(=S)N(CCc2nc3cc(C)c(C)cc3[nH]2)Cc2cccnc2)c1
- EC50 [3]: > 60 µM (not active)
- EC50 [4]: 0.853 µM (active)

Structure (SMILES): CCCN1C[C@H](CSC)C[C@H]2c3cccc4[nH]cc(c34)C[C@@H]21
- AC50 (Cytochrome P450 1A2): 3.16 µM (inconclusive)

Structure (SMILES): CCCCNC(=O)CCc1c(C)nc2c(c(C)nn2-c2ccccc2)c1C
- EC50 [3]: > 30 µM (not active)
- EC50 [4]: 1.39 µM (active)

Structure (SMILES): O=[N+]([O-])c1ccc(Nc2nc(NC3CCCCC3)nc(N3CCCC3)n2)cc1
- EC50 [3]: > 60 µM (not active)
- EC50 [4]: 1.75 µM (active)

Structure (SMILES): COc1ccc(/C=N/N(Cc2ccccc2)c2ccccc2)cc1O
- AC50 [2]: 6.09 µM (active)

Structure (SMILES): CC1=C(/C=C\C(=O)O)C(C)(C)CCC1
- AC50 (Cytochrome P450 1A2): 6.31 µM (inconclusive)

Structure (SMILES): Cc1ccc(C)c(-n2c(Cc3cc(O)nc(O)n3)nnc2SCC(=O)NCC2CCCO2)c1 (stereo not given)
- AC50 (Cytochrome P450 3A4): 31.6 µM (inconclusive)

Structure (SMILES): Cc1c(C(=O)Nc2ccc3c(c2)OCCO3)sc2nc(-c3ccccc3)cn12
- EC50 (Streptococcus): 7.44 µM (active)
- EC50 [1]: 3010 nM (active)

Structure (SMILES): COc1ccc(CN(C)CC(=O)Nc2ccc(Cl)cc2C(F)(F)F)c(OC)c1
- IC50 [5]: 84.4 µM (active)

Structure (SMILES): Clc1ccc(COc2cccc(CNCc3ccncc3)c2)cc1
- EC50 [3]: > 60 µM (not active)
- EC50 [4]: 3.42 µM (active)

Structure (SMILES): COc1cc(C(=O)N/N=C/c2cn(Cc3ccccc3)c3ccccc23)ccc1O
- IC50 [5]: 90.1 µM (active)
